From US9670214B2, “Small molecule myristate inhibitors of Bcr-abl and methods of use” (DANA-FARBER CANCER INSTITUTE, INC., priority 2007, dated 2017) come the findings set out here.

pIC50: −log10 of the molar value.

For assay [1], the system named is Ba/F3 cells (IL-3 dependent murine pro-B cell line). The assay can be described thus: Proliferation assay (MTT), parental Ba/F3 cells. The assay is classed as cell-based. The settings on record: Mus musculus, 48 h, drug concentrations 0.005-10 μM, read-out: BaF3. An outline of the steps:
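Parental Ba/F3 cells grown with 10 U/ml murine IL-3 in RPMI/10% FBS, plated at 0.3-0.6×10^6/ml with compound at 0.005-10 μM for 48 h, 37 °C. Viability by MTT reduction; IC50 from percent growth relative to DMSO controls.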

The target in assay [2] is Bcr-abl (Ba/F3.p210 cells) (Homo sapiens, UniProt P00519). The assay can be described thus: Proliferation assay (MTT), wild type Bcr-abl expressing Ba/F3 cells. The assay is classed as cell-based, murine. The settings on record: 48 h, drug concentrations 0.005-10 μM. An excerpt:
(§1) Wild type Bcr-abl expressing 32D (32D.p210) and Ba/F3 (Ba/F3.p210) cells, and mutant Bcr-abl expressing cell lines Ba/F3.p210^G250E, Ba/F3.p210^E255V, Ba/F3.p210^T315I, Ba/F3.p210^F317L and Ba/F3.p210^M351T, as well as Ba/F3 cells transformed with Flt-3-ITD kinase. Additional assays included Ba/F3 cells expressing the fusion protein kinases TEL-PDGFRβ, TEL-JAK1, NPM-ALK, TEL-cKit, Tel-Bmx, Tel-FGR3, Tel-Lck and Ba/F3.TPR-met cells. All the above cell lines were maintained in RPMI-1640 medium with L-Glutamine, 10% FBS and 1 mg/ml geneticin (Gibco).
(§2) Cells (0.3-0.6×10^6/ml) were plated in duplicate or triplicate in 96-well plates containing increasing drug concentrations (0.005-10 μM). After incubation at 37° C. in 5% CO2 for 48 h, the effect of the compounds on cell viability was determined by MTT (Promega) colorimetric dye reduction method. Inhibition of cell proliferation was calculated as a percentage of growth of DMSO treated cells, and IC50 values were determined with Microsoft Excel XLfit3.

The target in assay [3] is Bcr-abl T315I (Ba/F3.p210^T315I cells) (Homo sapiens, UniProt P00519, T315I, cells depend on it). In words: Proliferation assay (MTT), T315I mutant Bcr-abl expressing Ba/F3 cells. The settings on record: 48 h, drug concentrations 0.005-10 μM. The assay is classed as cell-based, murine.
Description: as §1, §2

In the case of `COCCCNC(=O)c1ccc2c(Nc3ccc(OC(F)(F)F)cc3)ncnc2c1`, the pIC50 was below 5.00 in assay [1], 5.39 in assay [2] and below 5.00 in assay [3].
As for `CCNC(=O)CCn1ccc2c(Nc3ccc(OC(F)(F)F)cc3)ncnc21`, the pIC50 in assay [1] is below 5.00; in assay [2] it was 5.62; in assay [3] it was 5.03.
For the molecule `O=C(c1ccc2c(Nc3ccc(OC(F)(F)F)cc3)ncnc2c1)N1CCC(O)C1` (stereo not drawn), the pIC50 in assay [1] is below 5.00; in assay [2] it was 5.93; in assay [3], below 5.00.
As to `O=C(c1ccoc1)N1CCN(C(=O)c2ccc3c(Nc4ccc(OC(F)(F)F)cc4)ncnc3c2)CC1`, the pIC50 in assay [1] is below 5.00; in assay [2] it was 5.69; in assay [3], 5.41.
As for `O=C(CCn1ccc2c(Nc3ccc(OC(F)(F)F)cc3)ncnc21)NCCN1CCOCC1`, the pIC50 in assay [1] was below 5.00; in assay [2], 5.97; in assay [3], 5.50.
On to `CNCCN(C)C(=O)c1ccc2c(Nc3ccc(OC(F)(F)F)cc3)ncnc2c1`, for which the values for the pIC50 in assay [1], in assay [2] and in assay [3] were below 5.00, 5.22 and below 5.00, respectively.
With `Cc1ccc(S(=O)(=O)NC(=O)c2ccc3c(Nc4ccc(OC(F)(F)F)cc4)ncnc3c2)cc1`, the pIC50 in assay [1], in assay [2] and in assay [3] was below 5.00 each time.
Turning to `O=C(c1ccc2c(Nc3ccc(OC(F)(F)F)cc3)ncnc2c1)N1CCC2(CC1)C(=O)NCN2c1ccccc1`, the pIC50 is 5.16 in assay [1], 5.83 in assay [2] and 5.08 in assay [3].
`Cn1c(C(=O)NC(=N)N)cc2c(Nc3ccc(OC(F)(F)F)cc3)ncnc21`: the pIC50 in assay [1], in assay [2] and in assay [3] was below 5.00 in each case.
With `CCN(CC)C(=O)c1ccc2c(Nc3ccc(OC(F)(F)F)cc3)ncnc2c1`, the pIC50 in assay [1] was below 5.00; in assay [2], 6.13; in assay [3], 5.50.
On the same counts, the results for `COC(=O)c1ccc2c(Nc3ccc(OC(F)(F)F)cc3)ncnc2c1` are 5.18, 6.67 and 5.72.
On to `OCc1ccc2c(Nc3ccc(OC(F)(F)F)cc3)ncnc2c1`, for which the pIC50 in assay [1] is below 5.00; in assay [2], 6.29; in assay [3] it was below 5.00.
Turning to `CN(CCO)C(=O)c1ccc2c(Nc3ccc(OC(F)(F)F)cc3)ncnc2c1`, the values for the pIC50 in assay [1], in assay [2] and in assay [3] were below 5.00, 5.57 and below 5.00, respectively.
As to `O=C(Nc1cccc(C(F)(F)F)c1)c1ccc2c(Nc3ccc(OC(F)(F)F)cc3)ncnc2c1`, the pIC50 in assay [1] was 5.35; in assay [2], 5.89; in assay [3] it was 5.81.
Turning to `CC(C)C(CCO)NC(=O)CCn1ccc2c(Nc3ccc(OC(F)(F)F)cc3)ncnc21` (stereo not drawn), the pIC50 was below 5.00 in assay [1], 6.07 in assay [2] and 5.68 in assay [3].
`CCN(CC)CCCC(C)NC(=O)c1cc2c(Nc3ccc(OC(F)(F)F)cc3)ncnc2n1C` (stereo not drawn): the pIC50 in assay [1] was 5.39; in assay [2], 5.93; in assay [3] it was 5.40.
For the molecule `Cn1ccc2c(Nc3ccc(OC(F)(F)F)cc3)ncnc21`, the pIC50 in assay [1] was below 5.00; in assay [2] it was 5.16; in assay [3], below 5.00.
Take `NC(=O)CCn1ccc2c(Nc3ccc(OC(F)(F)F)cc3)ncnc21`: the pIC50 was below 5.00 in assay [1], 6.31 in assay [2] and 5.19 in assay [3].
Take `COC1CCN(C(=O)c2ccc3c(Nc4ccc(OC(F)(F)F)cc4)ncnc3c2)CC1`: the pIC50 is below 5.00 in assay [1], 6.19 in assay [2] and 6.05 in assay [3].
For `CCN1CCCC1NC(=O)c1cc2c(Nc3ccc(OC(F)(F)F)cc3)ncnc2n1C` (stereo not drawn), the pIC50 in assay [1] is 5.29; in assay [2], 5.53; in assay [3], 5.07.
